The values below come from article PMC7481482, “Development of Anthraquinone Derivatives as Ectonucleoside Triphosphate Diphosphohydrolase (NTPDase) Inhibitors With Selectivity for NTPDase2 and NTPDase3” (Frontiers in Pharmacology, 2020).

Data set [1] addresses T1, human NTPDase1 (Homo sapiens, UniProt P49961).
T1 construct: expressed in transfected cells; host or cells: COS-7 cells (membrane preparation)
T1 sequence (P49961 1-510): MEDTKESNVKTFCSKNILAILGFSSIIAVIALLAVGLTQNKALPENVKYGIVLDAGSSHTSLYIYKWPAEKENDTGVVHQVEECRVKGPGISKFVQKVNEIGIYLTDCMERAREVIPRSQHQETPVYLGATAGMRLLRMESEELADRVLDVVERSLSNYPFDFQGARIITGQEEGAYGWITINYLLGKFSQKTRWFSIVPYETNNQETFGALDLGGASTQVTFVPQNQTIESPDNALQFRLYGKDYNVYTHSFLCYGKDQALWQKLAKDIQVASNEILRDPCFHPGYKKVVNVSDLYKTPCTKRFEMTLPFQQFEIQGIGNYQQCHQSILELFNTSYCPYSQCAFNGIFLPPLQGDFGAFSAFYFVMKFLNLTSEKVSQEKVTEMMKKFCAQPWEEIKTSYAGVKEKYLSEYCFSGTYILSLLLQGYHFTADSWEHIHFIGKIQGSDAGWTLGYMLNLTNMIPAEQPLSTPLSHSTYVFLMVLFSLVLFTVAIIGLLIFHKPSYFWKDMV
The data set can be described thus: Malachite green assay, human NTPDase1. Type of data set: biochemical. The note with it: 2 μM compound; 50 µM ATP; COS-7 membrane preparation; read-out: % inhibition at 2 μM concentration, NTPDase1. An outline of the steps:
(§1)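 COS-7 membranes expressing each NTPDase were preincubated with compound for 5 min at 37 °C, pH 7.4 HEPES buffer with 2 mM CaCl2/1 mM MgCl2. ATP was 50 µM for NTPDase1 and 100 µM for -2, -3, -8; reaction ran 15 min at 37 °C. Released phosphate read by malachite green at 600 nm; screen at 2 µM, IC50 over 0.03–30 µM in 2% DMSO.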

In data set [2] the target is T2, human NTPDase2 (Homo sapiens, UniProt Q9Y5L3).
T2 construct: expressed in transfected cells; host or cells: COS-7 cells (membrane preparation)
T2 sequence (Q9Y5L3 1-495): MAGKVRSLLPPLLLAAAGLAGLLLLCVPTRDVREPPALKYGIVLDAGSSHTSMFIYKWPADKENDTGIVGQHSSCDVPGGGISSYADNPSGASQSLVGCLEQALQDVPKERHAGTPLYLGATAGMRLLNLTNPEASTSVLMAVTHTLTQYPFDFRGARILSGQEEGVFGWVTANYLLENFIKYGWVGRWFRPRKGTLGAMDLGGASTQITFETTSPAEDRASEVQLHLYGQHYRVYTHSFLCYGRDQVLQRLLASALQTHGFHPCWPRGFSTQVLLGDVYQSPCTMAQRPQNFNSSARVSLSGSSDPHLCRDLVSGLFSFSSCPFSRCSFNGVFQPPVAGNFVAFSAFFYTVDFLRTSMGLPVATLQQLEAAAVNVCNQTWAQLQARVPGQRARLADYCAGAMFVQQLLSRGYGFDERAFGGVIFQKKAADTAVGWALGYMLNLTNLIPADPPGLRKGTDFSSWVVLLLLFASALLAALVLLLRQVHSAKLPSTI
The data set can be described thus: Malachite green assay, human NTPDase2. The note with it: 100 µM ATP, COS-7 membrane preparation; for inhibition at 2 µM: 2 μM compound, read-out: % inhibition at 2 μM concentration, NTPDase2; for IC50: read-out: IC50 ± SEM, NTPDase2. Type of data set: biochemical. An outline of the steps:
as §1

Data set [3] concerns the target T3, human NTPDase3 (Homo sapiens, UniProt O75355).
T3 construct: expressed in transfected cells; host or cells: COS-7 cells (membrane preparation)
T3 sequence (O75355 1-529): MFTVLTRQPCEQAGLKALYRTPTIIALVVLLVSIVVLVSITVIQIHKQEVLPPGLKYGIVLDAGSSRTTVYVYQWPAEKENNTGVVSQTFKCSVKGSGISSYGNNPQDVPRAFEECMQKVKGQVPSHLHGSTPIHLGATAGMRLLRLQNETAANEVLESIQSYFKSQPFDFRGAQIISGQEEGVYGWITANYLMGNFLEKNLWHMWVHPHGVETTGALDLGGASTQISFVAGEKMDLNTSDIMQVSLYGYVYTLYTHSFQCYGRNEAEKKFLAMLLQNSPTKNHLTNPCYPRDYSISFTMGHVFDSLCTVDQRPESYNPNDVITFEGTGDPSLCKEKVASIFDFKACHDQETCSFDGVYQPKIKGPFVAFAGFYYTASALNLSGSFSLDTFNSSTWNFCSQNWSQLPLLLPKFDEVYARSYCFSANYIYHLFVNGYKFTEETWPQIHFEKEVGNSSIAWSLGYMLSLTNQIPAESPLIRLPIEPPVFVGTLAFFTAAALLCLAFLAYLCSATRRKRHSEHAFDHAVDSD
The data set can be described thus: Malachite green assay, human NTPDase3. To be noted: 100 µM ATP, COS-7 membrane preparation; for inhibition at 2 µM: 2 μM compound, read-out: % inhibition at 2 μM concentration, NTPDase3. Format: biochemical. In a few lines: as §1

Data set [4] deals with T4, human NTPDase8 (Homo sapiens, UniProt Q5MY95).
T4 construct: expressed in transfected cells; host or cells: COS-7 cells (membrane preparation)
T4 sequence (Q5MY95 1-495): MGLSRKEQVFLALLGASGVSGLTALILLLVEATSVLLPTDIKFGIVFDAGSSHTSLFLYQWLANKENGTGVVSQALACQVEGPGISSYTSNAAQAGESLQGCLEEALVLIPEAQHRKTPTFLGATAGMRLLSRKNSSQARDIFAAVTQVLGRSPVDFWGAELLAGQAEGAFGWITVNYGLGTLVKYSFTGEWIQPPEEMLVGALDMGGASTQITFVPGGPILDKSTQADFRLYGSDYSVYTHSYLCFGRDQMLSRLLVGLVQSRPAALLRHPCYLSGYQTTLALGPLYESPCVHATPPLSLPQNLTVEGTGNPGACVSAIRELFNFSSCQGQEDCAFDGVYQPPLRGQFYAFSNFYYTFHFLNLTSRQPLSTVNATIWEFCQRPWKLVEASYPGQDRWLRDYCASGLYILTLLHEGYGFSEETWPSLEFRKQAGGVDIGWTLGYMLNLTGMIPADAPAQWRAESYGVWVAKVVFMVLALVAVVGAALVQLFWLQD
The data set can be described thus: Malachite green assay, human NTPDase8. Format: biochemical. The note with it: 2 μM compound; 100 µM ATP; COS-7 membrane preparation; read-out: % inhibition at 2 μM concentration, NTPDase8. In a few lines: as §1

Data set [5] concerns rat NTPDase1. The note with it: cited from earlier work; for IC50: rat enzyme, ref Baqi et al., 2009b.
Data set [6] concerns rat NTPDase2. The note with it: cited from earlier work; for IC50: rat enzyme, ref Baqi et al., 2009b.
For data set [7], the system named is rat NTPDase3. To be noted: cited from earlier work; for IC50: rat enzyme, ref Baqi et al., 2009b.

Regarding `Cc1cccc(Nc2cc(S(=O)(=O)O)c(N)c3c2C(=O)c2ccccc2C3=O)c1` [Compound 6, reference compound], the inhibition at 2 µM in data set [1] was -4%; in data set [2], 22%; in data set [3], 1%; in data set [4], -21%. Further, the IC50 (usually the concentration that gives 50% inhibition) in data set [5] is 51500 nM; in data set [6], 12800 nM; in data set [7] it was 19100 nM.
Take `Nc1c(S(=O)(=O)O)cc(Nc2ccc3ccccc3c2)c2c1C(=O)c1ccccc1C2=O` [Compound 18]: the inhibition at 2 µM is -8% in data set [1], 34% in data set [2], -9% in data set [3] and 3% in data set [4]. The IC50 in data set [5] is 328 nM; in data set [6] it was 19100 nM; in data set [7], 2220 nM.
Consider `Nc1c(S(=O)(=O)[O-])cc(Nc2cccc(CC(=O)O)c2)c2c1C(=O)c1ccccc1C2=O.[Na+]` [Compound 30, Sodium 1-amino-4-(3-(carboxymethyl)phenylamino)-9,10-dioxo-9,10-dihydroanthracene-2-sulfonate], for which the melting point (in general, the temperature of the solid-liquid transition) was greater than 300 °C. Further, in data set [1], the inhibition at 2 µM was -6%. In addition, the inhibition at 2 µM in data set [2] is 7%. Further, in data set [3] (read-out: IC50 ± SEM, NTPDase3), the IC50 turned out to be 1520 ± 280 nM. The inhibition at 2 µM in data set [4] is -11%.
`Nc1c(S(=O)(=O)[O-])cc(Nc2cccc(Cl)c2Cl)c2c1C(=O)c1ccccc1C2=O.[Na+]` [Compound 34, Sodium 1-amino-4-(2,3-dichlorophenylamino)-9,10-dioxo-9,10-dihydroanthracene-2-sulfonate] yielded a melting point greater than 300 °C. Further, the inhibition at 2 µM in data set [1] turned out to be 1%. Besides, the inhibition at 2 µM in data set [2] is 16%. The inhibition at 2 µM in data set [3] was -2%. In data set [4], the inhibition at 2 µM came to 7%.
The molecule `Nc1c(S(=O)(=O)[O-])cc(Nc2cccc(F)c2C(=O)O)c2c1C(=O)c1ccccc1C2=O.[Na+]` [Compound 35, Sodium 1-amino-4-(2-carboxy-3-fluorophenylamino)-9,10-dioxo-9,10-dihydroanthracene-2-sulfonate] yielded a melting point greater than 300 °C. In data set [1], the inhibition at 2 µM is -21%. In data set [2], the inhibition at 2 µM was -3%. The inhibition at 2 µM in data set [3] was found to be 32%. Also, the inhibition at 2 µM in data set [4] is -10%.
The matching figures for `Nc1c(S(=O)(=O)[O-])cc(Nc2ccc(O)cc2F)c2c1C(=O)c1ccccc1C2=O.[Na+]` [Compound 37, Sodium 1-amino-4-(2-fluoro-4-hydroxyphenylamino)-9,10-dioxo-9,10-dihydroanthracene-2-sulfonate]: greater than 300 °C, -8%, 5%, -12% and -6%.
In the case of `Nc1c(S(=O)(=O)[O-])cc(Nc2cccc(Sc3ccccc3)c2)c2c1C(=O)c1ccccc1C2=O.[Na+]` [Compound 41, Sodium 1-amino-4-(3-(phenylsulfanyl)phenylamino)-9,10-dioxo-9,10-dihydroanthracene-2-sulfonate], the melting point is greater than 300 °C. The inhibition at 2 µM in data set [1] was 1%. Also, the IC50 in data set [2] is 984 ± 327 nM. Further, the inhibition at 2 µM in data set [3] is 10%. For the same molecule, the inhibition at 2 µM in data set [4] came to 6%.
The corresponding values for `Nc1c(S(=O)(=O)[O-])cc(Nc2ccc(Sc3ccc(Cl)cc3)cc2)c2c1C(=O)c1ccccc1C2=O.[Na+]` [Compound 45, Sodium 1-amino-4-[4-(4-chlorophenylthio)phenylamino]-9,10-dioxo-9,10-dihydroanthracene-2-sulfonate] are greater than 300 °C, 52%, 1080 ± 80 nM, 42% and 21%.
`COc1ccc(Sc2ccc(Nc3cc(S(=O)(=O)[O-])c(N)c4c3C(=O)c3ccccc3C4=O)cc2)cc1.[Na+]` [Compound 47, Sodium 1-amino-4-[4-(4-methoxyphenylthio)phenylamino]-9,10-dioxo-9,10-dihydroanthracene-2-sulfonate] showed a melting point greater than 300 °C. In addition, the inhibition at 2 µM in data set [1] stood at 34%. Also, in data set [2], the IC50 is 951 ± 225 nM. Also, the inhibition at 2 µM in data set [3] was determined as 16%. In data set [4], the inhibition at 2 µM came out at 4%.
For the molecule `CCc1cccc(Nc2cc(Br)c(N)c3c2C(=O)c2ccccc2C3=O)c1` [Compound 53, 1-Amino-2-bromo-4-(3-ethylphenylamino)anthracene-9,10-dione], the melting point was in the range of 229 to 230 °C. For the same molecule, in data set [1], the inhibition at 2 µM is -4%. Moreover, the inhibition at 2 µM in data set [2] is 5%. The inhibition at 2 µM in data set [3] was -2%. Moreover, the inhibition at 2 µM in data set [4] was -4%.
The molecule `O=C1c2ccccc2C(=O)c2c(Nc3cccc(F)c3)cc(S(=O)(=O)O)cc21` [Compound 57, 4-(3-Fluorophenylamino)-9,10-dioxo-9,10-dihydroanthracene-2-sulfonic acid] showed a melting point greater than 300 °C. Moreover, the inhibition at 2 µM in data set [1] was found to be 14%. The inhibition at 2 µM in data set [2] is -6%. Besides, in data set [3], the inhibition at 2 µM stood at 9%. In data set [4], the inhibition at 2 µM is -1%.
In the case of “[TiW11CoO40]^8- [Compound 9, reference compound]”, in data set [5] (ref Müller et al., 2006), the “inhibition of rat NTPDase1 (concentration range in words)” value was “submicromolar concentration range”. For the same molecule, the “inhibition of rat NTPDase2 (concentration range in words)” value in data set [6] (ref Müller et al., 2006) is listed as “submicromolar concentration range”. Also, in data set [7] (ref Müller et al., 2006), the “inhibition of rat NTPDase3 (concentration range in words)” value is “submicromolar concentration range”.
